Experimental findings from patent US6921774B2, “Compounds and their use as glycine transport inhibitors” (H. Lundbeck A/S, priority 2000, dated 2005) are described below.

Counter-ions that a name gives are not always drawn.

As usually defined, the IC50 is the concentration at which inhibition is half-maximal.

The target in this experiment is T1, human GlyT-1b (Homo sapiens, UniProt P48067).
T1 construct: expressed in transfected cells
T1 sequence (P48067 1-652 isoform P48067-3): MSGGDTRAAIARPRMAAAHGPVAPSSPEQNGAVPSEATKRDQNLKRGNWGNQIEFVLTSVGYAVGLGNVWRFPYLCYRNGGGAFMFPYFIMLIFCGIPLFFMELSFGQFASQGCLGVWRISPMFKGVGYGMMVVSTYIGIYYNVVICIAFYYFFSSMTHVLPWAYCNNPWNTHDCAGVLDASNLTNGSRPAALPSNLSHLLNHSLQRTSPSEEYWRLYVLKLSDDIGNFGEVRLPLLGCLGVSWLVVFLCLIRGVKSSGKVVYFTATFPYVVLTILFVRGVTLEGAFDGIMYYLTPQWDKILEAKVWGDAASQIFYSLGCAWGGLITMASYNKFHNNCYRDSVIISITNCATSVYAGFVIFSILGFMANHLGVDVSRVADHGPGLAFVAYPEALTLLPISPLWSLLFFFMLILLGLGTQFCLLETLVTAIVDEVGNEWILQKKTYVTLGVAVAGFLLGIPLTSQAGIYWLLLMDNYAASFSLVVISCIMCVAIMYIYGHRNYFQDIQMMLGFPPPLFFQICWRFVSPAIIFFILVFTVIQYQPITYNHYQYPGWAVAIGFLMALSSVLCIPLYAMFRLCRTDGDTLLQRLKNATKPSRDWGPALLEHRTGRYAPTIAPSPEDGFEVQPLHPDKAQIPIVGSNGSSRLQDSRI
In words: [3H]-Glycine uptake in cells transfected with human GlyT-1b. The class given is cell-based. The following applies: 6 min pre-incubation, 10 nM 3H-glycine, 15 min, read-out: IC50 GlyT-1b (Inhibition of Glycine Transport by hGlyT-). On the procedure: The compounds of the invention were tested in a well-recognised and reliable test measuring glycine uptake:
Cells transfected with the human GlyT-1b were seeded in 96 well plates. Prior to the experiment the cells were washed twice in HBS (10 mM Hepes-tris (pH 7.4), 2.5 mM KCl, 1 mM CaCl2, 2.5 mM MgSO4,) and pre-incubated with test compound for 6 minutes. Afterwards, 10 nM ^3H-glycine was added to each well and the incubation was continued for 15 minutes. The cells were washed twice in HBS. Scintillation fluid was added and the Plates were counted on a Trilux (Wallac) scintillation counter.
With `CN(CCCC1(c2ccc(Cl)cc2)CCc2cc(Cl)ccc21)CC(=O)O` (centres unmarked) [Compound 3z, N-{3-[5-Chloro-1-(4-chloro-phenyl)-indan-1-yl]-propyl}-N-methylglycine hydrochloride], the concentration for half-maximal inhibition (IC50) is 1.1 µM. For `Cc1ccc(-c2ccc3c(c2)COC3(CCN(C)CC(=O)O)c2ccc(Cl)cc2)cc1` (centres unmarked) [Compound 3al, N-{3-[1-(4-Chloro-phenyl)-5-(4-methyl-phenyl)-1,3-dihydro-isobenzofuran-1-yl]-ethyl}-N-methyl-glycine], the concentration for half-maximal inhibition (IC50) is 2.2 µM. Consider `Cc1cc(C2(CCCN(C)CC(=O)O)OCc3cc(C#N)ccc32)ccc1F` (centres unmarked) [Compound 3t, N-{3-[5-cyano-1-(3-methyl-4-fluorophenyl)-1,3-dihydroisobenzofuran-1-yl]-1-propyl}-N-methylglycine hydrochloride.], for which the 50% inhibitory concentration (IC50) turned out to be 5.7 µM. On to `CN(CCC1(c2ccc(Cl)cc2)OCc2cc(-c3cc(Cl)ccc3Cl)ccc21)CC(=O)O` (centres unmarked) [Compound 4k, N-{3-[1-(4-Chloro-phenyl)-5-(2,5-dichloro-phenyl)-1,3-dihydro-isobenzofuran-1-yl]-ethyl}-N-methyl-glycine], for which the half-inhibitory concentration (IC50) was 0.95 µM. For the molecule `CN(CCCC1(c2ccc(Cl)cc2)OCc2c(Cl)cccc21)CC(=O)O` (centres unmarked) [Compound 3k, N-{3-[4-chloro-1-(4-chlorophenyl)-1,3-dihydroisobenzofuran-1-yl]-1-propyl}-N-methylglycine hydrochloride.], the 50% inhibitory concentration (IC50) amounted to 4.1 µM. Regarding `CN(CCCC1(c2ccc(Cl)cc2)OCc2ccc(Cl)cc21)CC(=O)O` (centres unmarked) [Compound 3m, N-{3-[6-chloro-1-(4-chlorophenyl)-1,3-dihydroisobenzofuran-1-yl]-1-propyl}-N-methylglycine hydrochloride.], the 50% inhibitory concentration (IC50) turned out to be 7.2 µM. Next, “N-[2-(3-methyl-1-phenyl-indan-1-yl)-ethyl]-amino}-N-methyl alanine [Compound 3ak]”: 2.2 µM. `C[C@@H](C(=O)O)N(C)CCCC1(c2ccc(Cl)cc2)OCc2cc(Cl)ccc21` (some centres unmarked) [Compound 3l, N-{3-[5-chloro-1-(4-chlorophenyl)-1,3-dihydroisobenzofuran-1-yl]-1-propyl}-N-methylalanine hydrochloride]: the half-inhibitory concentration (IC50) is 5.5 µM.

Take `CN(CCC1(c2ccc(Cl)cc2)OCc2cc(-c3cccs3)ccc21)CC(=O)O` (centres unmarked) [Compound 4c, N-{3-[1-(4-Chloro-phenyl)-5-(2-thiophenyl)-1,3-dihydro-isobenzofuran-1-yl]-ethyl}-N-methyl-glycine]: the IC50 was 1.2 µM. Then `CN(CCC1(c2ccc(Cl)cc2)OC(C)(C)c2ccccc21)CC(=O)O` (centres unmarked) [Compound 3af, N-{2-[1-(4-Chloro-phenyl)-3,3-dimethyl-1,3-dihydro-isobenzofuran-1-yl]-ethyl}-N-methylglycine], with 3.5 µM. With `CN(CCCC1(c2ccc(Cl)cc2)OCc2cc(Br)ccc21)CC(=O)O` (centres unmarked) [Compound 3ae, N-{3-[5-Bromo-1-(4-chlorophenyl)-1,3-dihydroisobenzofuran-1-yl]-1-propyl}-N-methylglycine], the IC50 turned out to be 4 µM. Then `Cc1ccccc1-c1ccc2c(c1)COC2(CCN(C)CC(=O)O)c1ccc(Cl)cc1` (centres unmarked) [Compound 4j, N-{3-[1-(4-Chloro-phenyl)-5-(2-methyl-phenyl)-1,3-dihydro-isobenzofuran-1-yl]-ethyl}-N-methyl-glycine], with 0.71 µM; and “N-{3-[1-(4-methylphenyl)-1,3-dihydroisobenzofuran-1-yl]-1-propyl}-N-methylglycine. hydrochloride [Compound 3f]”, with 5.4 µM; and `Cc1ccc(C2(CCCN(C)CC(=O)O)OCc3ccc(Cl)cc32)cc1` (centres unmarked) [Compound 3n, N-{3-[6-chloro-1-(4-methylphenyl)-1,3-dihydroisobenzofuran-1-yl]-1-propyl}-N-methylglycine hydrochloride.], with 9.6 µM. Next, `Cc1ccc(-c2ccc3c(c2)COC3(CCCN(C)CC(=O)O)c2ccc(Cl)cc2)cc1` (centres unmarked) [Compound 4d, N-{3-[1-(4-Chloro-phenyl)-5-(4-methyl-phenyl)-1,3-dihydro-isobenzofuran-1-yl]-propyl}-N-methyl-glycine]: 1.5 µM. Then `C[C@@H](C(=O)O)N(C)CCCC1(c2ccc(Cl)cc2)CCc2cc(Cl)ccc21` (some centres unmarked) [Compound 3aa, N-{3-[5-Chloro-1-(4-chloro-phenyl)-indan-1-yl]-propyl}-N-methylalanine hydrochloride], with 0.47 µM. For `COc1ccc(C2(CCCN(C)CC(=O)O)OCc3cc(C#N)ccc32)cc1` (centres unmarked) [Compound 3v, N-{3-[5-cyano-1-(4-methoxyphenyl)-1,3-dihydroisobenzofuran-1-yl]-1-propyl}-N-methylglycine hydrochloride], the IC50 amounted to 8.6 µM.
